Test results reported in PubChem BioAssay (NCI).
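Where inhibition never reached the appropriate level, the endpoint shown equals the highest concentration tested. Otherwise, values were interpolated linearly from a five-concentration, 48-hour dose response in 96-well plates. At the GI50, growth is halved. TGI marks complete inhibition of growth.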

Assays:
Experiment in all cases: NCI anticancer screen, dose series, 48 h
NCI-H23 lung = test system: NCI-H23 lung
T-47D breast = test system: T-47D breast
SK-OV-3 ovarian = test system: SK-OV-3 ovarian
SK-MEL-28 melanoma = test system: SK-MEL-28 melanoma
LOX IMVI melanoma = test system: LOX IMVI melanoma
SNB-19 CNS = test system: SNB-19 CNS
HS 578T breast = test system: HS 578T breast
HOP-62 NSCLC = test system: HOP-62 NSCLC
SN12C renal = test system: SN12C renal
SNB-75 CNS = test system: SNB-75 CNS
KM12 colon = test system: KM12 colon
OVCAR-5 ovarian = test system: OVCAR-5 ovarian
NCI-H522 lung = test system: NCI-H522 lung
M14 melanoma = test system: M14 melanoma
SW-620 colon = test system: SW-620 colon
NCI-H226 lung = test system: NCI-H226 lung
HL-60(TB) leukemia = test system: HL-60(TB) leukemia
TK-10 renal = test system: TK-10 renal
HCC-2998 colon = test system: HCC-2998 colon
786-0 renal = test system: 786-0 renal
MALME-3M melanoma = test system: MALME-3M melanoma
RPMI-8226 leukemia = test system: RPMI-8226 leukemia
CAKI-1 renal = test system: CAKI-1 renal
RXF 393 renal = test system: RXF 393 renal
IGROV1 ovarian = test system: IGROV1 ovarian
OVCAR-8 ovarian = test system: OVCAR-8 ovarian
SF-539 CNS = test system: SF-539 CNS
HCT-15 colon = test system: HCT-15 colon
SR leukemia = test system: SR leukemia
NCI-H460 lung = test system: NCI-H460 lung
CCRF-CEM leukemia = test system: CCRF-CEM leukemia
BT-549 breast = test system: BT-549 breast
EKVX NSCLC = test system: EKVX NSCLC
A549 NSCLC = test system: A549 NSCLC
HT29 colon = test system: HT29 colon
SK-MEL-5 melanoma = test system: SK-MEL-5 melanoma
PC-3 prostate = test system: PC-3 prostate
HCT-116 colon = test system: HCT-116 colon
MDA-MB-231 breast = test system: MDA-MB-231 breast
MCF7 breast = test system: MCF7 breast
SF-268 CNS = test system: SF-268 CNS
SF-295 CNS = test system: SF-295 CNS
NCI/ADR-RES ovarian = test system: NCI/ADR-RES ovarian
UO-31 renal = test system: UO-31 renal
UACC-62 melanoma = test system: UACC-62 melanoma
DU-145 prostate = test system: DU-145 prostate
A498 renal = test system: A498 renal
HOP-92 NSCLC = test system: HOP-92 NSCLC
UACC-257 melanoma = test system: UACC-257 melanoma
COLO 205 colon = test system: COLO 205 colon
MOLT-4 leukemia = test system: MOLT-4 leukemia
OVCAR-3 ovarian = test system: OVCAR-3 ovarian
MDA-MB-435 = test system: MDA-MB-435
U251 CNS = test system: U251 CNS
SK-MEL-2 melanoma = test system: SK-MEL-2 melanoma
K-562 leukemia = test system: K-562 leukemia
ACHN renal = test system: ACHN renal

Structure (SMILES): COc1cc(-c2ccc[nH]2)[nH]c1/C=C1\N=C(C)C(C(=O)NC(C)C)=C1C
- GI50 (NCI-H23 lung): 3.63 µM
- TGI (NCI-H23 lung): 16 µM
- GI50 (T-47D breast): 3.02 µM
- TGI (T-47D breast): 10.7 µM
- GI50 (SK-OV-3 ovarian): 10.7 µM
- TGI (SK-OV-3 ovarian): 22.8 µM
- GI50 (SK-MEL-28 melanoma): 7.17 µM
- TGI (SK-MEL-28 melanoma): 19.8 µM
- GI50 (LOX IMVI melanoma): 0.74 µM
- TGI (LOX IMVI melanoma): 2.52 µM
- GI50 (SNB-19 CNS): 10.4 µM
- TGI (SNB-19 CNS): 23.8 µM
- GI50 (HS 578T breast): 2.84 µM
- TGI (HS 578T breast): 10.5 µM
- GI50 (HOP-62 NSCLC): 3.77 µM
- TGI (HOP-62 NSCLC): 15.8 µM
- GI50 (SN12C renal): 10.7 µM
- TGI (SN12C renal): 24 µM
- GI50 (SNB-75 CNS): 4.94 µM
- TGI (SNB-75 CNS): 17.2 µM
- GI50 (KM12 colon): 1.93 µM
- TGI (KM12 colon): 13.7 µM
- GI50 (OVCAR-5 ovarian): 2.97 µM
- TGI (OVCAR-5 ovarian): 17.3 µM
- GI50 (NCI-H522 lung): 2.15 µM
- TGI (NCI-H522 lung): 6.65 µM
- GI50 (M14 melanoma): 1.97 µM
- TGI (M14 melanoma): 4.4 µM
- GI50 (SW-620 colon): 3.08 µM
- TGI (SW-620 colon): 14.7 µM
- GI50 (NCI-H226 lung): 3.77 µM
- TGI (NCI-H226 lung): 20.4 µM
- GI50 (HL-60(TB) leukemia): 2.4 µM
- TGI (HL-60(TB) leukemia): 10.3 µM
- GI50 (TK-10 renal): 3.1 µM
- TGI (TK-10 renal): 9.71 µM
- GI50 (HCC-2998 colon): 2.87 µM
- TGI (HCC-2998 colon): 13.8 µM
- GI50 (786-0 renal): 2.9 µM
- TGI (786-0 renal): 11.7 µM
- GI50 (MALME-3M melanoma): 4.6 µM
- TGI (MALME-3M melanoma): 16.9 µM
- GI50 (RPMI-8226 leukemia): 2.23 µM
- TGI (RPMI-8226 leukemia): 5.97 µM
- GI50 (CAKI-1 renal): 2.8 µM
- TGI (CAKI-1 renal): 10.9 µM
- GI50 (RXF 393 renal): 2.28 µM
- TGI (RXF 393 renal): 9.66 µM
- GI50 (IGROV1 ovarian): 4.81 µM
- TGI (IGROV1 ovarian): 25.4 µM
- GI50 (OVCAR-8 ovarian): 3.43 µM
- TGI (OVCAR-8 ovarian): 13.5 µM
- GI50 (SF-539 CNS): 5.47 µM
- TGI (SF-539 CNS): 20.2 µM
- GI50 (HCT-15 colon): 2.08 µM
- TGI (HCT-15 colon): 13.5 µM
- GI50 (SR leukemia): 2.17 µM
- TGI (SR leukemia): 7.87 µM
- GI50 (NCI-H460 lung): 2.44 µM
- TGI (NCI-H460 lung): 12.7 µM
- GI50 (CCRF-CEM leukemia): 1.77 µM
- TGI (CCRF-CEM leukemia): 32 µM
- GI50 (BT-549 breast): 4.62 µM
- TGI (BT-549 breast): 18.9 µM
- GI50 (EKVX NSCLC): 6.35 µM
- TGI (EKVX NSCLC): 23.2 µM
- GI50 (A549 NSCLC): 2.94 µM
- TGI (A549 NSCLC): 10.5 µM
- GI50 (HT29 colon): 0.508 µM
- TGI (HT29 colon): 10.8 µM
- GI50 (SK-MEL-5 melanoma): 1.34 µM
- TGI (SK-MEL-5 melanoma): 2.7 µM
- GI50 (PC-3 prostate): 4.67 µM
- TGI (PC-3 prostate): 19.3 µM
- GI50 (HCT-116 colon): 1.52 µM
- TGI (HCT-116 colon): 4.25 µM
- GI50 (MDA-MB-231 breast): 2.76 µM
- TGI (MDA-MB-231 breast): 12.9 µM
- GI50 (MCF7 breast): 2.82 µM
- TGI (MCF7 breast): 12.3 µM
- GI50 (SF-268 CNS): 4.78 µM
- TGI (SF-268 CNS): 18 µM
- GI50 (SF-295 CNS): 2.9 µM
- TGI (SF-295 CNS): 11.4 µM
- GI50 (NCI/ADR-RES ovarian): 4.24 µM
- TGI (NCI/ADR-RES ovarian): 16.5 µM
- GI50 (UO-31 renal): 2.72 µM
- TGI (UO-31 renal): 11 µM
- GI50 (UACC-62 melanoma): 2.68 µM
- TGI (UACC-62 melanoma): 6.77 µM
- GI50 (DU-145 prostate): 4.7 µM
- TGI (DU-145 prostate): 18.2 µM
- GI50 (A498 renal): 8.91 µM
- TGI (A498 renal): 21.6 µM
- GI50 (HOP-92 NSCLC): 2.22 µM
- TGI (HOP-92 NSCLC): 6.05 µM
- GI50 (UACC-257 melanoma): 2.54 µM
- TGI (UACC-257 melanoma): 6.42 µM
- GI50 (COLO 205 colon): 3.25 µM
- TGI (COLO 205 colon): 14.1 µM
- GI50 (MOLT-4 leukemia): 2.47 µM
- TGI (MOLT-4 leukemia): 24 µM
- GI50 (OVCAR-3 ovarian): 3.03 µM
- TGI (OVCAR-3 ovarian): 14.2 µM
- GI50 (MDA-MB-435): 4.51 µM
- TGI (MDA-MB-435): 19.5 µM
- GI50 (U251 CNS): 2.59 µM
- TGI (U251 CNS): 13.3 µM
- GI50 (SK-MEL-2 melanoma): 2.45 µM
- TGI (SK-MEL-2 melanoma): 5.49 µM
- GI50 (K-562 leukemia): 3.53 µM
- TGI (K-562 leukemia): 15.2 µM
- GI50 (ACHN renal): 3.59 µM
- TGI (ACHN renal): 13.3 µM
